The text below walks through data of patent publication US20120328713A1, “Articles of Manufacture with Improved Anti-microbial Properties” (priority 2009, published 2012).

Series [1] relates to Escherichia coli (ATCC 25922). The experiment in a line: MBEC P&G assay in dilutions of mucin. Format: cell-based. The procedure:
The effects of silver (III) periodate and silver nitrate in different dilutions of mucin (2.0%, 1.0%, 0.5%, 0.25%, 0.12%, 0.06%) were tested using the MBEC™ P&G assay against Escherichia coli (ATCC 25922)The challenge time was 4 hours. The tested concentration range for both silver compounds was 500 to 7.8 ppm.

Series [2] relates to P. aeruginosa ATCC 27853. The experiment in a line: Silver (III) periodate efficacy testing in the presence of Cl-, SO4 2-, and PO4 3-. Format: cell-based. Particulars: 30 minutes, 1.5-200 ppm. The procedure: Silver (III) periodate was tested for efficacy in water, 1% NaCl, 1% K2SO4, and 1% K2HPO4 solutions, and compared with silver nitrate. The test solutions were tested against P. aeruginosa ATCC 27853. The challenge time was 30 minutes. Silver (III) periodate and silver nitrate were tested at range of 1.5-200 ppm.

Series [3] relates to Escherichia coli (ATCC 25922). The experiment in a line: MBEC P&G assay in dilutions of urine. Format: cell-based. On the procedure: The effects of silver (III) periodate and silver nitrate in different dilutions of urine (0.001%, 0.01%, 0.1%, 1%, 10%, 50%) using the MBEC™ P&G assay were tested against Escherichia coli (ATCC 25922)The challenge time was 4 hours. The tested concentration range for both silver compounds was 500 to 7.8 ppm.

Series [4] has as its system Staphylococcus aureus (MRSA) 456. The experiment in a line: MBEC P&G assay in dilutions of human serum. It is filed as cell-based. On the procedure:
(§1) The effects of silver (III) periodate and silver nitrate were tested in different dilutions of human serum (0.001%, 0.01%, 0.1%, 1%, 10%, 50%) using the MBECTM P&G assay against relevant clinical human pathogens Escherichia coli, Staphylococcus aureus (MRSA), and Candida albicans. The challenge time was 4 hours. The tested concentration range for the silver compounds was 500 to 7.8 ppm.

The test system of series [5] is Escherichia coli ATCC 25922. The experiment in a line: MBEC P&G assay in dilutions of human serum. It is filed as cell-based. On the procedure:
as §1

In series [6] the test system is Candida albicans ATCC 28367. The experiment in a line: MBEC P&G assay in dilutions of human serum. The conditions noted are these: all concentrations of human serum. It is filed as cell-based. On the procedure:
as §1

Series [7] deals with Escherichia coli (ATCC 25922). The experiment in a line: MBEC P&G assay in dilutions of feces. It is filed as cell-based. The procedure:
The challenge time was 4 hours. The tested concentration range for both silver compounds was 500 to 7.8 ppm.

The test system of series [8] is bacterial canker (Clavibacter michiganensis pv. michiganensis). The experiment in a line: Field trial, foliar spray against bacterial canker in tomatoes (Example 19). Particulars: after three treatment sprays; full dose. Format: in vivo, tomatoes (Lycopersicon esculentum). On the procedure:
(§2) Silver (III) periodate was tested as a bactericidal foliar spray treatment against bacterial canker (Clavibacter michiganensis pv. michiganensis) in tomatoes (Lycopersicon esculentum).
(§3) See Example 18 for Preparation of Tomato Seed; Preparation of Field; Seeding; Plot Maintenance; Preparation of Spray Treatment Solutions and Inoculum; Spray Treatment Procedure; and Data Collection.

Series [9] has as its system bacterial speck (Pseudomonas syringae pv. tomato). The experiment in a line: Field trial, foliar spray against bacterial speck in tomatoes (Example 18). It is filed as in vivo, tomatoes (Lycopersicon esculentum). Particulars: after three treatment sprays.
The test system of series [10] is bacterial canker (Clavibacter michiganensis pv. michiganensis). The experiment in a line: Field trial, foliar spray against bacterial canker in tomatoes (Example 20). It is filed as in vivo, tomatoes (Lycopersicon esculentum). On the procedure: as §2, §3
Series [11] deals with Pseudomonas aeruginosa biofilms. The experiment in a line: Log reduction and MBEC assays on biofilms. It is filed as cell-based. Particulars: 4 hours.
Series [12] can be described thus: Stability of partially dehydrated sodium diperiodatoargentate in the presence of saline. Format: physicochemical. The conditions noted are these: compared with the fully hydrated compound. On the procedure: Fully hydrated sodium diperiodatoargentate was made, ground using a mortar and pestle, and spread in an even thin layer in a pre-heated (120° C.) non-reactive container (e.g. glass or ceramics). The thin layer was necessary to prevent areas of poor heat transfer. The container was then placed in an oven at 120° C. for 15 minutes. After 15 minutes, the sample was removed from the oven and transferred to a sealed container (glass vial), which was then stored in a dessicator in the dark at room temperature to prevent the material from adsorbing water.
Relative to the fully hydrated sodium diperiodatoargentate, the partially dehydrated sodium diperiodatoargentate is darker in color and is a much finer powder (which will be advantageous for incorporation into polymers).

With `O=[N+]([O-])[O-].[Ag+]` [silver nitrate, reference compound], the “log reduction compared with the other compound” value in series [1] (mucin 0.5% and lower, higher compound concentrations) is recorded as “better log reductions”; in [3] (compound concentrations of 125 ppm and below), “larger log reduction in the higher concentrations of urine”; in series [4] (0.001% human serum, 500 ppm), “higher log reduction only at 500 ppm with a two magnitude difference”. Moreover, the “log reduction, trend with compound concentration” value is given as “the lower the concentration of silver nitrate, the lower the log reduction was” in series [1] (regardless of the concentration of mucin); “no effect on the log reduction” in series [5] (human serum 1% or 0.001%); “log reductions decreased significantly with a decrease in the concentration of silver nitrate” in series [5] (human serum 50%, 10%, and 0.1%); “Log reductions decreased with a decrease in concentration of silver nitrate” in series [6]. For the same compound, the killing entry is “unable to kill at any of the tested concentrations” in series [2] (in the presence of 1% NaCl or 1% K2HPO4); “effective at killing all the cells for the entire challenge range” in series [2] (no salt and 1% K2SO4). The MBC cut-off point in series [3] (50.0% urine) came to 31.25 ppm; in series [3] (100% urine) it was 62.5 ppm. Moreover, the log reduction entry in series [3] (500 and 250 ppm, all tested concentrations of urine) is on record as “approximately equal log reductions”. Besides, in series [4] (0.1% and 0.01% human serum), the killing activity entry was “no significant killing activity”. In addition, the “MBC, effective level” value in [7] (1.56% feces) was under 7.8 ppm; in series [7] (3.13% feces) it was under 7.8 ppm; in series [7] (6.25% feces), under 7.8 ppm; in series [7] (12.5% feces), 15.6 ppm; in series [7] (25% feces), 31.25 ppm; in [7] (50% feces), 62.5 ppm. Also, the “MBEC effectiveness compared with silver(III) periodate” value in [7] (in the presence of feces) is reported as “more effective than silver(III) periodate in higher concentrations of feces but less effective in lower concentrations”.
In the case of oxysilver nitrate [reference compound], the “disease severity on foliage” value in series [8] is recorded as “best at reducing disease severity on foliage”; in series [9] it was “best at reducing disease severity on foliage”; in [10] (after three treatment sprays, low and high dose), “best at reducing disease severity on foliage”; in series [10] (after two treatment sprays, high dose) it was “best at reducing disease severity on foliage”.
As for sodium diperiodatoargentate, the kill of biofilms entry in series [11] (200 ppm, p<0.05) is “significantly higher kill than the fully hydrated sodium diperiodatoargentate”; in [11] (all other concentrations (1.56 ppm to 200 ppm range)) it was “no significant differences”. In addition, the “stability in the presence of saline” value in [12] was “same level of stability as the fully hydrated compound”.
